This note sets out measurements from patent US20230212526A1, “PLURIPOTENT STEM CELL-DERIVED HEART ORGANOID” (Board of Trustees of Michigan State University, priority 2020, published 2023).

Each structure is given as a SMILES string.

The subject of data set [1] is human heart organoids (hHOs). The data set is described as follows: Cardiomyocyte differentiation in hHOs after initial CHIR99021 exposure (day 0, 24 hours), confocal TNNT2 quantification and beating. Particulars: for TNNT2+ cells (cardiomyocyte content): read at day 15. The data set is classed as cell-based. The procedure: Self-assembling hHO differentiation. Accutase® (Innovative Cell Technologies) was used to dissociate PSCs for spheroid formation. After dissociation, cells were centrifuged at 300 g for 5 minutes and resuspended in Essential 8™ Flex medium containing 2 μM ROCK inhibitor Thiazovivin (Millipore Sigma). hPSCs were then counted using a Moxi Cell Counter (Orflo Technologies) and seeded at 10000 cells/well in round bottom ultra-low attachment 96-well plates (Costar) on day −2. The plate was then centrifuged at 100 g for 3 minutes and placed in an incubator at 37° C. and 5% CO2. After 24 hours (day −1), 50 μl of media was carefully removed from each well and 200 μl of fresh Essential 8™ Flex medium was added for a final volume of 250 μl/well. The plate was returned to the incubator for a further 24 hours. […] On day 1, 166 μl of media was removed and replaced with fresh RPMI 1640 with B27™ Supplement, minus insulin. On day 2, RPMI 1640 with B27™ Supplement, minus insulin containing Wnt-059 (Selleck) was added for a final concentration of 2 μM Wnt-059, and the samples were incubated for 48 hours. The media was changed on day 4 and day 6. On day 6, media was changed to RPMI 1640 with B27™ Supplement (Gibco). On day 7, a second 4 μM CHIR99021 exposure was conducted for 1 hour in RPMI 1640 with B27™ Supplement. Subsequently, media was changed every 48 hours until organoids were ready for analysis. Diabetic conditions were simulated by using basal RPMI media with 11.1 mM glucose and 58 nM insulin and compared with control media containing 3.5 mM glucose and 170 pM insulin.
Immunofluorescence. hHOs were transferred to microcentrifuge tubes (Eppendorf) using a cut 1000-μL pipette tip to avoid disruption to the organoids and fixed in 4% paraformaldehyde solution (dissolved in PBS) for 30 minutes at room temperature. Fixation was followed by three washes in PBS-Glycine (20 mM) and incubation in blocking/permeabilization solution (10% Donkey Normal Serum, 0.5% Triton™ X-100, 0.5% BSA in PBS) on a thermal mixer (Thermo Scientific) at 300 RPM at 4° C. overnight. hHOs were then washed three times in PBS and incubated with primary antibodies (see Table 1) in Antibody Solution (1% Donkey Normal Serum, 0.5% Triton™ X-100, 0.5% BSA in PBS) on a thermal mixer at 300 RPM at 4° C. for 24 hours. […]
(§1) Confocal microscopy and image analysis. Samples were imaged using two confocal laser scanning microscopes (Nikon Instruments A1 Confocal Laser Microscope; Zeiss LSM 880 NLO Confocal Microscope System) and images were analyzed using Fiji (hypertext transfer protocol secure//imagej.net/Fiji). For tissue region quantification in the organoids, DAPI positive cells were used for normalization against the target cell marker of interest across three z-planes throughout each organoid. […]

Data set [2] concerns human heart organoids (hHOs). The data set is described as follows: Second CHIR99021 exposure on day 7: epicardial cell and cardiomyocyte formation in hHOs (confocal quantification). The format is cell-based. The procedure:
Self-assembling hHO differentiation. Accutase® (Innovative Cell Technologies) was used to dissociate PSCs for spheroid formation. After dissociation, cells were centrifuged at 300 g for 5 minutes and resuspended in Essential 8™ Flex medium containing 2 μM ROCK inhibitor Thiazovivin (Millipore Sigma). hPSCs were then counted using a Moxi Cell Counter (Orflo Technologies) and seeded at 10000 cells/well in round bottom ultra-low attachment 96-well plates (Costar) on day −2. The plate was then centrifuged at 100 g for 3 minutes and placed in an incubator at 37° C. and 5% CO2. After 24 hours (day −1), 50 μl of media was carefully removed from each well and 200 μl of fresh Essential 8™ Flex medium was added for a final volume of 250 μl/well. The plate was returned to the incubator for a further 24 hours. On day 0, 166 μl (approximately ⅔ of total well volume) of media was removed from each well and 166 μl of RPMI 1640 with B27™ Supplement, minus insulin (Gibco) containing CHIR99021 (Selleck) was added at a final concentration of 4 μM/well along with BMP4 at 0.36 pM (1.25 ng/ml) and ActA at 0.08 pM (1 ng/ml) for 24 hours. On day 1, 166 μl of media was removed and replaced with fresh RPMI 1640 with B27™ Supplement, minus insulin. On day 2, RPMI 1640 with B27™ Supplement, minus insulin containing Wnt-059 (Selleck) was added for a final concentration of 2 μM Wnt-059, and the samples were incubated for 48 hours. The media was changed on day 4 and day 6. On day 6, media was changed to RPMI 1640 with B27™ Supplement (Gibco). […] Subsequently, media was changed every 48 hours until organoids were ready for analysis. Diabetic conditions were simulated by using basal RPMI media with 11.1 mM glucose and 58 nM insulin and compared with control media containing 3.5 mM glucose and 170 pM insulin.
Immunofluorescence. hHOs were transferred to microcentrifuge tubes (Eppendorf) using a cut 1000-μL pipette tip to avoid disruption to the organoids and fixed in 4% paraformaldehyde solution (dissolved in PBS) for 30 minutes at room temperature. […]
as §1

For data set [3], the system named is FlipGFP transgenic iPSC-L1 derived hHOs. The data set is described as follows: FlipGFP apoptosis reporter in hHOs (effector caspase activation). The format is cell-based, human. Conditions: 5 μM doxorubicin, positive control. The procedure:
Lentiviral transduction. FlipGFP plasmid (Vector Builder) was transduced into a L1 iPSC line using a ZymoPURE™ II Plasmid Midiprep Kit (Fisher Scientific) according to manufacturer instructions. HEK293t were cultured in D10 media (DMEM+10% FBS+1% P/S) and later switched with reduced serum OptiMem™ (Gibco, Fisher Scientific) for 1 hour. Lipofectamine mixture (100 μl Lipofectamine 2000 (Thermo Fisher Scientific)+4 ml OptiMem™ sitting at room temperature for 5 minutes) was mixed with PLUS™ reagent mixture (200 μl PLUS™ reagent (Invitrogen, Fisher Scientific)+4 ml OptiMem™+20 μg lentiCRISPR plasmid+10 μg pMD2.gpVSVg (or pVSVgpMD2.g)+15 μg psPAX2) and was then added to the HEK293t cells and allowed to incubate at 37° C. for 6 hours. Following this, the media was changed to 30 ml D10+1% BSA per flask, without antibiotics. After 48-60 hours, the media was collected and centrifuged at 3000 rpm at 4° C. for 10 minutes. The supernatant was transferred to an Amicon® Filter Unit (Millipore-Sigma) and spun in a tabletop centrifuge at 3200 g for 30 minutes at 4° C. The flow through was dumped, and the process was repeated. The concentrated virus was aliquoted and stored at −80° C. Virus aliquot and polybrene (Fisher Scientific) were thawed at 37° C. Virus and polybrene were delivered to iPSC-L1s at low- to mid-confluences and incubated overnight. […]

[4] abbreviates: single 2 μM CHIR99021 for 1 hour on day 7, read at day 15.

As to `Cc1c[nH]c(-c2cnc(NCCNc3ccc(C#N)cn3)nc2-c2ccc(Cl)cc2Cl)n1` [CHIR99021], the “TNNT2+ cells (cardiomyocyte content)” value came to 64±5% in data set [1] (4 μM CHIR99021 on day 0 for 24 hours), 9.6±5% in data set [1] (6.6 μM CHIR99021 on day 0 for 24 hours) and 2.4±2% in data set [1] (8 μM CHIR99021 on day 0 for 24 hours). Further, the “functional properties (beats per minute, percentage of beating hHOs)” value in data set [1] (4 μM versus 6.6 μM and 8 μM CHIR99021) is on record as “best functional properties of the three concentrations”. Besides, the “formation of cardiac cell types other than epicardial cells (cardiomyocytes)” value in data set [2] (high concentrations or long exposure times of second exposure) is “marked inhibition”. The “formation of proepicardium and epicardial cells” value in data set [2] (second exposure on day 7, 2-8 μM, 1-48 hours) is “robustly promoted the formation of proepicardium and epicardial cells”. For the same molecule, the “cardiomyocytes (TNNT2+ area)” value in data set [2] (setting [4]) is 60%. Besides, the “epicardial cells (WT1+/TJP1+ area)” value in data set [2] (setting [4]) is 10-20%.

Regarding `COc1cccc2c1C(=O)c1c(O)c3c(c(O)c1C2=O)C[C@@](O)(C(=O)CO)C[C@@H]3O[C@H]1C[C@H](N)[C@H](O)[C@H](C)O1` [doxorubicin], the “apoptosis (FlipGFP fluorescence)” value was “high apoptosis” in data set [3] and “evident signs of cell death” in data set [3] (listed as Doxorubicin).
